Blank lines part the entries; values can stand above or below the molecule they belong to.
Key:
Hepatocyte = details: human, hepatocytes, 4 h, 10 µM
Description: Retention time of the compound in human hepatocytes at 10 uM after 4 hrs by HPLC-UV analysis

in vitro [1] = details: dog, MDCK
Description: Apparent passive permeability of the compound in RRCK cells by FACS analysis

[2] = Intrinsic clearance in human primary hepatocytes assessed per million cells; assay type: ADME, cell-based, Hepatocyte; details: read-out: CLH
physchem = details: in vivo, pH 7.4
[3] = Half life in human primary hepatocytes at 10 uM; assay type: ADME, cell-based, Hepatocyte
[4] = Half life of the compound in deuteriated phosphate buffer at pH 7.4 at 37 degC measured every 25 mins for 21 hrs by 1H NMR analysis; assay type: physicochemical
[5] = Drug level in human hepatocytes treated with 6-chloro-5-(6-(dimethylamino)-2-methoxypyridin-3-yl)-1H-indole-3-carboxylic acid at 10 uM after 4 hrs by HPLC-UV analysis; assay type: ADME, cell-based, Hepatocyte
[6] = Drug level in human hepatocytes treated with 6-chloro-5-[4-(1-hydroxycyclobutyl)phenyl]-1H-indole-3-carboxylic acid at 10 uM after 4 hrs by HPLC-UV analysis; assay type: ADME, cell-based, Hepatocyte
AMPK alpha2/beta1/gamma1 = AMPK alpha2/beta1/gamma1 (Homo sapiens, UniProt P54619+P54646+Q9Y478); assay: biochemical
Description: Activation of full-length recombinant N-terminal His-tagged human AMPKalpha2beta1gamma1 expressed in Escherichia coli BL21 cells using Cy-5 SAMS peptide as substrate preincubated for 60 mins followed by substrate addition and measured after 60 mins in presence of PP2a by TR-FRET assay

[7] = Drug level in human hepatocytes treated with (S)-4,6-difluoro-5-(4-(tetrahydro-2H-pyran-2-yl)phenyl)-1H-indole-3-carboxylic acid at 10 uM after 4 hrs by HPLC-UV analysis; assay type: ADME, cell-based, Hepatocyte
AMPK alpha2/beta2/gamma1 = AMPK alpha2/beta2/gamma1 (Homo sapiens, UniProt O43741+P54619+P54646); assay: biochemical
Description: Activation of full-length recombinant N-terminal His-tagged human AMPKalpha2beta2gamma1 expressed in Escherichia coli BL21 cells using Cy-5 SAMS peptide as substrate preincubated for 60 mins followed by substrate addition and measured after 60 mins in presence of PP2a by TR-FRET assay

AMPK alpha1/beta2/gamma1 = AMPK alpha1/beta2/gamma1 (Homo sapiens, UniProt O43741+P54619+Q13131); assay: biochemical
Description: Activation of full-length recombinant N-terminal His-tagged human AMPKalpha1beta2gamma1 expressed in Escherichia coli BL21 cells using Cy-5 SAMS peptide as substrate preincubated for 60 mins followed by substrate addition and measured after 60 mins in presence of PP2a by TR-FRET assay

[8] = molecular target: T1, AMP-activated protein kinase (AMPK) alpha-1/beta-1/gamma-1 (Homo sapiens, UniProt P54619+Q13131+Q9Y478); assay: biochemical
Description: Activation of full-length recombinant N-terminal His-tagged human AMPKalpha1beta1gamma1 expressed in Escherichia coli BL21 cells using Cy-5 SAMS peptide as substrate preincubated for 60 mins followed by substrate addition and measured after 60 mins in presence of PP2a by TR-FRET assay

[9] = molecular target: T1, AMP-activated protein kinase (AMPK) alpha-1/beta-1/gamma-1; assay: biochemical; remark: listed apart in the source
Description: Binding affinity to Bap-tagged human AMPKalpha1beta1gamma1 expressed in Escherichia coli BL21 cells by SPR analysis

[10] = molecular target: AMP-activated protein kinase (AMPK) alpha-1/beta-1/gamma-1 (Homo sapiens) (UniProt P54619+Q9Y478+Q13131)
Description: Binding affinity to Bap-tagged human AMPKalpha1beta1gamma1 expressed in Escherichia coli BL21 cells assessed as dissociation half life by SPR analysis

AMPK alpha2/beta2/gamma3 = AMPK alpha2/beta2/gamma3 (Homo sapiens, UniProt O43741+P54646+Q9UGI9); assay: biochemical
Description: Activation of full-length recombinant N-terminal His-tagged human AMPKalpha2beta2gamma3 expressed in Escherichia coli BL21 cells using Cy-5 SAMS peptide as substrate preincubated for 60 mins followed by substrate addition and measured after 60 mins in presence of PP2a by TR-FRET assay

[11] = Half life in Wistar Han rat at 0.5 mg/kg, iv by LC-MS/MS analysis; assay type: ADME, organism-based; details: in vivo
[12] = Intrinsic clearance in monkey hepatocytes assessed per million cells; assay type: ADME, cell-based, Macaca mulatta, Hepatocyte; details: rhesus monkey, read-out: CLH
[13] = Drug recovery in Wistar Han rat urine assessed as unchanged parent compound level at 0.5 mg/kg, iv by LC-MS/MS analysis; assay type: ADME, organism-based; details: read-out: Drug recovery
[14] = Plasma clearance in Wistar Han rat at 0.5 mg/kg, iv by LC-MS/MS analysis; assay type: ADME, organism-based
in vivo [15] = details: cynomolgus monkey, urine, iv, 1 mg/kg
Description: Drug recovery in cynomolgus monkey urine assessed as unchanged parent compound level at 1 mg/kg, iv by LC-MS/MS analysis

in vivo [16] = details: cynomolgus monkey, plasma, iv, 1 mg/kg
[17] = Half life in human hepatocytes; assay type: ADME, cell-based, Hepatocyte
in vitro [18] = details: rhesus monkey, plasma
Description: Protein binding in monkey plasma assessed as unbound fraction

[19] = AUC (0 to 24 hrs) in Wistar Han rat at 0.5 mg/kg, iv by LC-MS/MS analysis; assay type: ADME, organism-based; parameters: time < 24 hr, dose 0.5 mg/kg, route intravenous; details: in vivo
[20] = Volume of distribution at steady state in Wistar Han rat at 0.5 mg/kg, iv by LC-MS/MS analysis; assay type: ADME, organism-based; details: in vivo, read-out: Vdss
Cynomolgus monkey = assay: AUC (0 to 24 hrs) in cynomolgus monkey assessed as 6-chloro-5-[4-(1-hydroxycyclobutyl)phenyl]-1H-indole-3-carboxylic acid level at 0.5 mg/kg, iv by LC-MS/MS analysis; assay type: ADME, organism-based, Macaca fascicularis; parameters: dose 0.5 mg/kg, time < 24 hr, route intravenous; details: in vivo
[21] = Intrinsic clearance in human hepatocytes assessed per million cells; assay type: ADME, cell-based, Hepatocyte; details: read-out: CLH
in vitro [22] = details: rat, plasma
Description: Protein binding in rat plasma assessed as unbound fraction

in vivo [23] = details: cynomolgus monkey, iv, 1 mg/kg
[24] = Half life in monkey hepatocytes; assay type: ADME, cell-based, Macaca mulatta, Hepatocyte; details: rhesus monkey
in vitro [25] = details: human, plasma
Description: Protein binding in human plasma assessed as unbound fraction

Rattus norvegicus = assay: AUC (0 to 24 hrs) in Wistar Han rat assessed as 6-chloro-5-[4-(1-hydroxycyclobutyl)phenyl]-1H-indole-3-carboxylic acid level at 0.5 mg/kg, iv by LC-MS/MS analysis; assay type: ADME, organism-based; parameters: time < 24 hr, dose 0.5 mg/kg, route intravenous; details: in vivo
in vivo [26] = details: cynomolgus monkey, iv, 1 mg/kg; remark: listed apart in the source
Description: Volume of distribution at steady state in cynomolgus monkey at 1 mg/kg, iv by LC-MS/MS analysis

[27] = Half life in rat hepatocytes; assay type: ADME, cell-based, Hepatocyte
[28] = Intrinsic clearance in rat hepatocytes assessed per million cells; assay type: ADME, cell-based, Hepatocyte; details: read-out: CLH
in vivo [29] = details: cynomolgus monkey, iv, 1 mg/kg; remark: listed apart in the source
Description: Half life in cynomolgus monkey at 1 mg/kg, iv by LC-MS/MS analysis

[30] = Drug metabolism in human hepatocytes assessed as (2S,3S,4S,5R,6S)-6-((4,6-Difluoro-5-(4-((S)-tetrahydro-2H-pyran-2-yl)phenyl-1H-indole-3-carbonyl)oxy)-3,4,5-trihydroxytetrahydro-2H-pyran-2-carboxylic acid formation at 10 uM after 4 hrs by HPLC-UV analysis; assay type: ADME, cell-based, Hepatocyte

T1 sequence (P54619 whole entry): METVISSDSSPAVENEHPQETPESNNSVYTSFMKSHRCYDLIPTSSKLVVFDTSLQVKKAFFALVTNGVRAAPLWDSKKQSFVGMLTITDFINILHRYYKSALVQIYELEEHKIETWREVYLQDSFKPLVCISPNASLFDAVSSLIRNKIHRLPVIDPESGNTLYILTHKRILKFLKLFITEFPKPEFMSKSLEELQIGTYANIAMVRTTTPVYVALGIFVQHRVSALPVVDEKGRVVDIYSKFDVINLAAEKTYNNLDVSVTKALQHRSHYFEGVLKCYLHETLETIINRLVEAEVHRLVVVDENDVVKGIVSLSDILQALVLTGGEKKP
T1 sequence (Q9Y478 whole entry): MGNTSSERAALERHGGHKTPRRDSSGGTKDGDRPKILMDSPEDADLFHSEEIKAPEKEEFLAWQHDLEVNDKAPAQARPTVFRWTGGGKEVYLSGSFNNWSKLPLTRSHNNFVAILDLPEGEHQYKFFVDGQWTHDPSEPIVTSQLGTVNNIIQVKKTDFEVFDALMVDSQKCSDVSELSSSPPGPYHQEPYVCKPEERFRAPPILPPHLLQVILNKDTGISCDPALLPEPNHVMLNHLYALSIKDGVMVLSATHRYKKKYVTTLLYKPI
T1 sequence (Q13131 whole entry): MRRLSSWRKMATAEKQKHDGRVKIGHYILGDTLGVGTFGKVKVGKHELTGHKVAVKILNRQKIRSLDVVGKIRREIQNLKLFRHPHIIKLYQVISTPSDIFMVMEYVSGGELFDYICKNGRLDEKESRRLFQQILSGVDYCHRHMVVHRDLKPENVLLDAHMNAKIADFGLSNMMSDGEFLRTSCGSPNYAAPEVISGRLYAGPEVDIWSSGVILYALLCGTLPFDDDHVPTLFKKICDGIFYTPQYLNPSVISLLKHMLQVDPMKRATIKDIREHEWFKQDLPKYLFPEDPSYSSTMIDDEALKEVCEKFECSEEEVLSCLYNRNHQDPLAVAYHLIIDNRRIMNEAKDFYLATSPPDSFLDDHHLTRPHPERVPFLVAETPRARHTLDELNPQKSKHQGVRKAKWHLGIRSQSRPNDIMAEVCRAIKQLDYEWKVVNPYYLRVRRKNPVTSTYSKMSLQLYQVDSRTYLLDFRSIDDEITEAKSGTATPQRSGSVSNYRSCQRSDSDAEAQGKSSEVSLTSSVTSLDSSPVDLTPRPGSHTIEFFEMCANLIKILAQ
Sequence of AMPK alpha2/beta1/gamma1 (P54646 whole entry): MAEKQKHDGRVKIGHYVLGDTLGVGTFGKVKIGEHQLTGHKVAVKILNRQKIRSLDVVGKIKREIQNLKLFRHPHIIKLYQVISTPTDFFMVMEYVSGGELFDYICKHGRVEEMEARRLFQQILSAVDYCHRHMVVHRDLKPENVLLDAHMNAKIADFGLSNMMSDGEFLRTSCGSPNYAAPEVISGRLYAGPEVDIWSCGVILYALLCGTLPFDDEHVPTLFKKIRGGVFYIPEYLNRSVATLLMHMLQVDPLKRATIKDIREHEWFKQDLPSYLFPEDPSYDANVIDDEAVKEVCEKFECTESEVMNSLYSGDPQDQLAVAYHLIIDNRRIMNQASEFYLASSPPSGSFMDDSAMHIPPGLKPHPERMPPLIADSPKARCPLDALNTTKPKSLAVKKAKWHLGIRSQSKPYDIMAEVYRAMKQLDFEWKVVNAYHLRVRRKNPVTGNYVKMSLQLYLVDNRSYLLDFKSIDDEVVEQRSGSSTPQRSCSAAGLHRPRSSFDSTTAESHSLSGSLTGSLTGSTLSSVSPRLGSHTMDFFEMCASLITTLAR
Sequence of AMPK alpha2/beta1/gamma1 (P54619 whole entry): as the sequence (P54619 whole entry) above
Sequence of AMPK alpha2/beta1/gamma1 (Q9Y478 whole entry): as the sequence (Q9Y478 whole entry) above
Sequence of AMPK alpha2/beta2/gamma1 (P54646 whole entry): as the sequence (P54646 whole entry) above
Sequence of AMPK alpha2/beta2/gamma1 (O43741 whole entry): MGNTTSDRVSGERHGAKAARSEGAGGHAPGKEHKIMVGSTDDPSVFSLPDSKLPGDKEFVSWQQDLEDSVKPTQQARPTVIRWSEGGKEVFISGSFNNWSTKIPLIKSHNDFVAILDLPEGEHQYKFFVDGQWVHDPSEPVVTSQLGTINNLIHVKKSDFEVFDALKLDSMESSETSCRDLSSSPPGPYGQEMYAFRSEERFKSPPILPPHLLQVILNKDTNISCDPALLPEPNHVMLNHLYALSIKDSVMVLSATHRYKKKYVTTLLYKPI
Sequence of AMPK alpha2/beta2/gamma1 (P54619 whole entry): as the sequence (P54619 whole entry) above
Sequence of AMPK alpha2/beta2/gamma3 (P54646 whole entry): as the sequence (P54646 whole entry) above
Sequence of AMPK alpha2/beta2/gamma3 (O43741 whole entry): as the sequence (O43741 whole entry) above
Sequence of AMPK alpha2/beta2/gamma3 (Q9UGI9 whole entry): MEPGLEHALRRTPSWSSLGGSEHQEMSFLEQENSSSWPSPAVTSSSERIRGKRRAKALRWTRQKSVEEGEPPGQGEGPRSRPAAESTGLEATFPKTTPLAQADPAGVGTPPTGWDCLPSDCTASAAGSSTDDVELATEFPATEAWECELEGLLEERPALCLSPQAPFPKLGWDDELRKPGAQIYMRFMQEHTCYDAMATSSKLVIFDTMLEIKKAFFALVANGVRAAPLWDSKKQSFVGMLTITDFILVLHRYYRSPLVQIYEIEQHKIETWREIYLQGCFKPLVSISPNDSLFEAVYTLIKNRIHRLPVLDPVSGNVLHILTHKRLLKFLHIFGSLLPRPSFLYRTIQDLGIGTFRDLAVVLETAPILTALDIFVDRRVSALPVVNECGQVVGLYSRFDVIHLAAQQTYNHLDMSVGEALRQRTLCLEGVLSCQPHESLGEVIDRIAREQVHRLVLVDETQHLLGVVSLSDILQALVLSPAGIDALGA
Sequence of AMP-activated protein kinase (AMPK) alpha-1/beta-1/gamma-1 (Homo sapiens) (P54619 whole entry): as the sequence (P54619 whole entry) above
Sequence of AMP-activated protein kinase (AMPK) alpha-1/beta-1/gamma-1 (Homo sapiens) (Q13131 whole entry partner): as the sequence (Q13131 whole entry) above
Sequence of AMP-activated protein kinase (AMPK) alpha-1/beta-1/gamma-1 (Homo sapiens) (Q9Y478 2-270 partner limits assumed): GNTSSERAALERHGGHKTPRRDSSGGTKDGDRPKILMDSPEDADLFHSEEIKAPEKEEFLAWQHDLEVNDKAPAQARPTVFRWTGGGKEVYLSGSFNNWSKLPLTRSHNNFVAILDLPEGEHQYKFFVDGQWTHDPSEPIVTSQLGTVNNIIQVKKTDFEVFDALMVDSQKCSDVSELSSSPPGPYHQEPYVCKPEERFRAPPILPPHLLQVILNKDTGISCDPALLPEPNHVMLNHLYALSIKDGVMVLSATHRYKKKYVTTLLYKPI
Sequence of AMPK alpha1/beta2/gamma1 (O43741 whole entry): as the sequence (O43741 whole entry) above
Sequence of AMPK alpha1/beta2/gamma1 (P54619 whole entry): as the sequence (P54619 whole entry) above
Sequence of AMPK alpha1/beta2/gamma1 (Q13131 whole entry): as the sequence (Q13131 whole entry) above

SMILES: COc1nc(N(C)C)ccc1-c1cc2c(C(=O)O[C@@H]3O[C@H](C(=O)O)[C@@H](O)[C@H](O)[C@H]3O)c[nH]c2cc1Cl
Retention_time (Hepatocyte): 7.96 min
Papp (in vitro [1]): 0.3 ×10⁻⁶ cm/s
hepatocyte CLint [2]: < 3 µL/min/1e6 cells
logD at 1 h (physchem): -0.05
half-life at 10 µM [3]: > 6.67 h
half-life [4]: > 21 h
Drug metabolism [5]: Metabolite_Detected

SMILES: O=C(O[C@@H]1O[C@H](C(=O)O)[C@@H](O)[C@H](O)[C@H]1O)c1c[nH]c2cc(F)c(-c3ccc([C@@H]4CCCCO4)cc3)c(F)c12
EC50 (AMPK alpha2/beta1/gamma1): 332 nM
Retention_time (Hepatocyte): 8.37 min
Papp (in vitro [1]): 0.3 ×10⁻⁶ cm/s
Drug metabolism [7]: Metabolite_Detected
logD at 1 h (physchem): 0.08
EC50 (AMPK alpha2/beta2/gamma1): > 40000 nM
EC50 (AMPK alpha1/beta2/gamma1): > 40000 nM
EC50 [8]: 59 nM
Kd [9]: 198 nM
half-life [4]: > 21 h
T1/2 [10]: 15.3 s
EC50 (AMPK alpha2/beta2/gamma3): > 40000 nM

SMILES: O=C(O)c1c[nH]c2cc(F)c(-c3ccc([C@@H]4CCCCO4)cc3)c(F)c12
Retention_time (Hepatocyte): 9.72 min
logD at 1 h (physchem): 1.8
Drug metabolism [30]: Metabolite_Detected

SMILES: COc1nc(N(C)C)ccc1-c1cc2c(C(=O)O)c[nH]c2cc1Cl
logD at 1 h (physchem): 2.3

The next lines start with the values.

Retention_time (Hepatocyte): 7.25 min
Drug metabolism [6]: Metabolite_Detected
SMILES: O=C(NO)c1c[nH]c2cc(Cl)c(-c3ccc(C4(O)CCC4)cc3)cc12

Retention_time (Hepatocyte): 7.09 min
half-life [11]: 6.96 h
hepatocyte CLint [12]: < 6 µL/min/1e6 cells
Papp (in vitro [1]): 0.6 ×10⁻⁶ cm/s
dose excreted [13]: 1%
clearance [14]: 0.99 mL/min/kg
hepatocyte CLint [2]: < 3 µL/min/1e6 cells
logD at 1 h (physchem): -0.14
dose excreted (in vivo [15]): 9.8%
clearance (in vivo [16]): 9.85 mL/min/kg
half-life [17]: > 4 h
half-life at 10 µM [3]: > 6.67 h
fraction unbound (in vitro [18]): 0.028
AUC(0-t) at 24 h [19]: 8850 ng·h/mL
Vd [20]: 0.4 L/kg
AUC (Cynomolgus monkey): 303 ng·h/mL
hepatocyte CLint [21]: < 6 µL/min/1e6 cells
fraction unbound (in vitro [22]): 0.0018
Drug metabolism [6]: Metabolite_Detected
AUC(0-t) at 24 h (in vivo [23]): 1750 ng·h/mL
half-life [24]: > 4 h
fraction unbound (in vitro [25]): 0.019
AUC (Rattus norvegicus): 101 ng·h/mL
Vd (in vivo [26]): 4.52 L/kg
half-life [27]: > 4 h
half-life [4]: > 21 h
hepatocyte CLint [28]: < 6 µL/min/1e6 cells
half-life (in vivo [29]): 18 h
SMILES: O=C(O[C@@H]1O[C@H](C(=O)O)[C@@H](O)[C@H](O)[C@H]1O)c1c[nH]c2cc(Cl)c(-c3ccc(C4(O)CCC4)cc3)cc12
